# Assay results from patent US20050009924A1 (priority 2003, published 2005).
# Columns and labels:
# human hepatoma G2 cells = assay: Cytotoxicity assay (XTT colorimetric), Hep G2; format: cell-based; conditions: Homo sapiens, HepG2; 48 h of drug exposure
# rat glioma C6 cells = assay: Cytotoxicity assay (XTT colorimetric), C6 cells; format: cell-based; conditions: Rattus norvegicus, C6; 48 h of drug exposure
# [1] = tested on: hepatitis B virus transfected hepatoma cell lines, HepG 2.2.15 cells; assay: Cytotoxicity assay, 2.2.15 cells; format: cell-based, human; conditions: Homo sapiens, HepG2.2.15; 48 h of drug exposure
# [2] = tested on: transcriptional activity of hTERT; assay: SEAP reporter assay of hTERT expression, PhTERT-SEAP (hTERT-BJ1); format: cell-based, human; conditions: PhTERT-SEAP (hTERT-BJ1)
# Procedure, shortened: (§1)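 We treated G418-selected reporter cells with varying drug amounts for 24 h and measured SEAP in the heat-inactivated medium as the rate of 405 nm absorbance increase.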
# [3] = tested on: transcriptional activity of hTERT; assay: SEAP reporter assay of hTERT expression, PhTERT-SEAP (H1299); format: cell-based, human; conditions: PhTERT-SEAP(hTERT-H1299)
# Procedure, shortened: as §1
# [4] = MTT relative viability, PhTERT-SEAP (H1299) cells; conditions: human
# [5] = MTT relative viability, PhTERT-SEAP (hTERT-BJ1) cells; conditions: human
# [6] = Homo sapiens, 2.0 μM, read-out: Relative SEAP activity (%)
# [7] = Homo sapiens, 20 μM, read-out: Relative SEAP activity (%)
# [8] = Homo sapiens, NCI-H1299, 2.0 μM, read-out: Relative SEAP activity (%)
# [9] = Homo sapiens, NCI-H1299, 20 μM, read-out: Relative SEAP activity (%)
# [10] = hTERT-BJ1 cells, stable PhTERT-SEAP reporter clone
smiles,measurement,setting,value
"O=C(Cc1cccs1)Nc1ccc(NC(=O)Cc2cccs2)c2c1C(=O)c1ccccc1C2=O [VI25, 1,4-Bis(2-thiopheneacetamido)-9,10-anthracenedione]",IC50,human hepatoma G2 cells,> 20 µM
same,IC50,rat glioma C6 cells,> 20 µM
same,IC50,[1],15.5 µM
same,SEAP/vibility,[2]; 2.0 μM,0.45
same,SEAP/vibility,[2]; 20 μM,0.38
same,SEAP/vibility,[2]; 205 μM,0.19
same,activity at 2 µM,[2]; [6],53 ± 17.4%
same,activity at 20 µM,[2]; [7],40 ± 12.7%
same,activity at 205 µM,"[2]; Homo sapiens, 205 μM, read-out: Relative SEAP activity (%)",14 ± 24.1%
same,SEAP/vibility,[3]; 2.0 μM,1.06
same,SEAP/vibility,[3]; 20 μM,1.39
same,SEAP/vibility,[3]; 205 μM,2.47
same,activity at 2 µM,[3]; [8],111 ± 3.7%
same,activity at 20 µM,[3]; [9],115 ± 4.3%
same,activity at 205 µM,"[3]; Homo sapiens, NCI-H1299, 205 μM, read-out: Relative SEAP activity (%)",102 ± 5.5%
same,melting point,,158 to 160 °C
same,"viability at 48 h, 2 µM",[4],104 ± 8%
same,"viability at 48 h, 20 µM",[4],83 ± 6.6%
same,"viability at 48 h, 205 µM",[4],41 ± 4%
same,"viability at 48 h, 205 µM",[5]; hTERT-BJ1 cells stably transfected with PhTERT-SEAP reporter,76 ± 6.5%
same,"viability at 48 h, 2 µM",[5]; [10],116 ± 7.5%
same,"viability at 48 h, 20 µM",[5]; [10],105 ± 4.4%
"O=C(Cc1ccc(F)cc1)Nc1ccc(NC(=O)Cc2ccc(F)cc2)c2c1C(=O)c1ccccc1C2=O [VI32, 1,4-Bis(4-fluorophenylacetamido)-9,10-anthracenedione]",IC50,human hepatoma G2 cells,> 20 µM
same,IC50,rat glioma C6 cells,> 20 µM
same,IC50,[1],> 20 µM
same,SEAP/vibility,[2]; 1.9 μM,0.84
same,SEAP/vibility,[2]; 19 μM,1.02
same,SEAP/vibility,[2]; 195 μM,1.01
same,activity at 1.9 µM,"[2]; Homo sapiens, 1.9 μM, read-out: Relative SEAP activity (%)",90 ± 18.4%
same,activity at 19 µM,"[2]; Homo sapiens, 19 μM, read-out: Relative SEAP activity (%)",102 ± 20%
same,activity at 195 µM,"[2]; Homo sapiens, 195 μM, read-out: Relative SEAP activity (%)",97 ± 11.6%
same,SEAP/vibility,[3]; 1.9 μM,1.00
same,SEAP/vibility,[3]; 19 μM,1.03
same,SEAP/vibility,[3]; 195 μM,1.39
same,activity at 1.9 µM,"[3]; Homo sapiens, NCI-H1299, 1.9 μM, read-out: Relative SEAP activity (%)",109 ± 10.8%
same,activity at 19 µM,"[3]; Homo sapiens, NCI-H1299, 19 μM, read-out: Relative SEAP activity (%)",109 ± 5.8%
same,activity at 195 µM,"[3]; Homo sapiens, NCI-H1299, 195 μM, read-out: Relative SEAP activity (%)",109 ± 6.6%
same,melting point,,228 to 230 °C
same,"viability at 48 h, 1.9 µM",[4],108 ± 8.8%
same,"viability at 48 h, 19 µM",[4],107 ± 7.5%
same,"viability at 48 h, 195 µM",[4],78 ± 8%
same,"viability at 48 h, 1.9 µM",[5]; [10],107 ± 7.2%
same,"viability at 48 h, 19 µM",[5]; [10],100 ± 6.3%
same,"viability at 48 h, 195 µM",[5]; [10],96 ± 4.1%
"CCN(CC)CC(=O)Nc1ccc(NC(=O)CN(CC)CC)c2c1C(=O)c1ccccc1C2=O [VI33, 1,4-Bis[2-(diethylamino)acetamido]-9,10-anthracenedione]",IC50,human hepatoma G2 cells,0.65 µM
same,IC50,rat glioma C6 cells,4.46 µM
same,IC50,[1],13 µM
same,SEAP/vibility,[2]; 2.1 μM,1.06
same,SEAP/vibility,[2]; 21 μM,1.40
same,SEAP/vibility,[2]; 215 μM,2.61
same,activity at 2.1 µM,"[2]; Homo sapiens, 2.1 μM, read-out: Relative SEAP activity (%)",111 ± 24.4%
same,activity at 21 µM,"[2]; Homo sapiens, 21 μM, read-out: Relative SEAP activity (%)",120 ± 25.6%
same,activity at 215 µM,"[2]; Homo sapiens, 215 μM, read-out: Relative SEAP activity (%)",83 ± 19%
same,SEAP/vibility,[3]; 2.1 μM,0.94
same,SEAP/vibility,[3]; 21 μM,0.99
same,SEAP/vibility,[3]; 215 μM,1.11
same,activity at 2.1 µM,"[3]; Homo sapiens, NCI-H1299, 2.1 μM, read-out: Relative SEAP activity (%)",98 ± 3.3%
same,activity at 21 µM,"[3]; Homo sapiens, NCI-H1299, 21 μM, read-out: Relative SEAP activity (%)",86 ± 7.4%
same,activity at 215 µM,"[3]; Homo sapiens, NCI-H1299, 215 μM, read-out: Relative SEAP activity (%)",48 ± 2.3%
same,melting point,,85 to 86 °C
same,"viability at 48 h, 2.1 µM",[4],105 ± 4.9%
same,"viability at 48 h, 21 µM",[4],87 ± 3.9%
same,"viability at 48 h, 215 µM",[4],44 ± 2.7%
same,"viability at 48 h, 2.1 µM",[5]; [10],105 ± 2.8%
same,"viability at 48 h, 21 µM",[5]; [10],86 ± 3.5%
same,"viability at 48 h, 215 µM",[5]; [10],32 ± 13.1%
"CCN(CC)C(C)C(=O)Nc1ccc(NC(=O)C(C)N(CC)CC)c2c1C(=O)c1ccccc1C2=O (stereo not shown) [VI35, 1,4-Bis[2-(diethylamino)propionamido]-9,10-anthracenedione]",IC50,human hepatoma G2 cells,2.02 µM
same,IC50,rat glioma C6 cells,18.1 µM
same,IC50,[1],8.57 µM
same,SEAP/vibility,[2]; 2.0 μM,0.41
same,SEAP/vibility,[2]; 20 μM,0.94
same,SEAP/vibility,[2]; 203 μM,0.61
same,activity at 2 µM,[2]; [6],40 ± 14.5%
same,activity at 20 µM,[2]; [7],49 ± 9.3%
same,activity at 203 µM,"[2]; Homo sapiens, 203 μM, read-out: Relative SEAP activity (%)",22 ± 6.6%
same,SEAP/vibility,[3]; 2.0 μM,1.00
same,SEAP/vibility,[3]; 20 μM,1.35
same,SEAP/vibility,[3]; 203 μM,0.98
same,activity at 2 µM,[3]; [8],96 ± 14.3%
same,activity at 20 µM,[3]; [9],104 ± 6%
same,activity at 203 µM,"[3]; Homo sapiens, NCI-H1299, 203 μM, read-out: Relative SEAP activity (%)",73 ± 11.7%
same,melting point,,175 to 177 °C
same,"viability at 48 h, 2 µM",[4],96 ± 7.9%
same,"viability at 48 h, 20 µM",[4],77 ± 7.2%
same,"viability at 48 h, 203 µM",[4],75 ± 4.6%
same,"viability at 48 h, 2 µM",[5]; [10],97 ± 3.9%
same,"viability at 48 h, 20 µM",[5]; [10],52 ± 7.2%
same,"viability at 48 h, 203 µM",[5]; [10],36 ± 5.8%
